# Assay results reported in US20130231296A1, “NEW DRUG COMBINATIONS FOR THE TREATMENT OF MALARIA” (Bioagency AG, priority 2010, published 2013).
# Like-named read-outs stand apart in the source and are kept apart here.
# What was measured:
# [1] = system: P. falciparum K1; assay: in vitro inhibition of parasite growth by [3H] hypoxanthine incorporation, drugs alone; format: cell-based; conditions: Plasmodium falciparum; for IC50: K1, P. falciparum K1 (insensitive to chloroquine)
# Experimental: (§1) 1. Initial determination of the in vitro efficacy profile (IC50/IC90) of FOS and PIP against a drug sensitive and a drug resistant strain of Plasmodium falciparum. P. falciparum 3D7 is chloroquine sensitive, P. falciparum K1 is insensitive to chloroquine
# (§2) in vitro inhibition of parasite growth was assessed by the incorporation of [3H] hypoxanthine, including chloroquine (CQ) and artesunate (ASN) as positive control drugs.
# (§3) The first set of in vitro experiments established the IC50 values of the drugs alone, followed by Fixed Ratio Combination assays of FOS+PIP with FOS+CND as a control combination. Chloroquine and artesunate were included in all assays to ensure the validity of the test.
# (§4) The first sets of experiments were carried out to establish the IC50 and IC90 values of the drugs on their own. The drugs were evaluated in 3 separate experiments (see Tables 1 & 2)
# [2] = system: P. falciparum 3D7; assay: as above; format: cell-based; conditions: Plasmodium falciparum; for IC50: 3D7, P. falciparum 3D7 (chloroquine sensitive)
# Experimental: as §1, §2, §3, §4
# [3] = 3D7, P. falciparum 3D7, Experiment 1
# [4] = 3D7, P. falciparum 3D7, Experiment 2
# [5] = 3D7, P. falciparum 3D7, Experiment 3
"IC50 ([1]; Experiment 1, read-out: IC50)","IC50 ([1]; Experiment 2, read-out: IC50)","IC50 ([1]; Experiment 3, read-out: IC50)","IC90 ([1]; K1, P. falciparum K1, Experiment 1, read-out: IC90)","IC90 ([1]; K1, P. falciparum K1, Experiment 2, read-out: IC90)","IC90 ([1]; K1, P. falciparum K1, Experiment 3, read-out: IC90)",SMILES,IC50 ([1]; Experiment 1),IC50 ([1]; Experiment 2),IC50 ([1]; Experiment 3),"IC90 ([1]; K1, P. falciparum K1, Experiment 1)","IC90 ([1]; K1, P. falciparum K1, Experiment 2)","IC90 ([1]; K1, P. falciparum K1, Experiment 3)",IC50 ([2]; Experiment 1),IC50 ([2]; Experiment 2),IC50 ([2]; Experiment 3),"IC90 [2, 3]","IC90 [2, 4]","IC90 [2, 5]"
,,,,,,"C[C@H]1[C@H](OC(=O)CCC(=O)O)O[C@@H]2O[C@@]3(C)CC[C@H]4[C@H](C)CC[C@@H]1[C@@]24OO3 [ASN, Artesunate]",5 ng/mL,2 ng/mL,2 ng/mL,6 ng/mL,3 ng/mL,4 ng/mL,1.9 ng/mL,2 ng/mL,0.8 ng/mL,7 ng/mL,2 ng/mL,2 ng/mL
20 ng/mL,20 ng/mL,10 ng/mL,60 ng/mL,50 ng/mL,20 ng/mL,"Clc1ccc2c(N3CCN(CCCN4CCN(c5ccnc6cc(Cl)ccc56)CC4)CC3)ccnc2c1 [PIP, 7-chloro-4-[4-[3-[4-(7-chloroquinolin-4-yl)piperazin-1-yl]propyl]piperazin-1-yl]quinoline]",,,,,,,10 ng/mL,6 ng/mL,10 ng/mL,18 ng/mL,20 ng/mL,10 ng/mL
